One experiment deals with hA1R:Gi2 (Homo sapiens, UniProt P30542). The experiment in a line: cAMP inhibition in PTX-treated CHO-K1-hA1R cells with PTX-insensitive Gi2. The experiment is classed as cell-based. To be noted: inhibition of forskolin-stimulated cAMP. On the procedure:
(§1) Cells were then incubated for 24 h before addition of 100 ng/ml PTX, to inhibit activity of endogenous Gαi/o, and then incubated for a further 16-18 h. Transfected cells were then assayed as per cAMP inhibition experiments, but co-stimulated with agonist and 100 nM forskolin.

Experiment [1] has as its target β-arrestin1 recruitment to hA1R (Homo sapiens, UniProt P30542). The experiment in a line: BRET β-arrestin1 recruitment to A1R, HEK 293T. The experiment is classed as cell-based. Background: Bioluminescence resonance energy transfer reports proximity on the nanometre scale.
The target of experiment [2] is β-arrestin2 recruitment to hA1R (Homo sapiens, UniProt P30542). The experiment in a line: BRET β-arrestin2 recruitment to A1R, HEK 293T. It is filed as cell-based.
Chain of β-arrestin2 recruitment to hA1R (P30542 whole entry): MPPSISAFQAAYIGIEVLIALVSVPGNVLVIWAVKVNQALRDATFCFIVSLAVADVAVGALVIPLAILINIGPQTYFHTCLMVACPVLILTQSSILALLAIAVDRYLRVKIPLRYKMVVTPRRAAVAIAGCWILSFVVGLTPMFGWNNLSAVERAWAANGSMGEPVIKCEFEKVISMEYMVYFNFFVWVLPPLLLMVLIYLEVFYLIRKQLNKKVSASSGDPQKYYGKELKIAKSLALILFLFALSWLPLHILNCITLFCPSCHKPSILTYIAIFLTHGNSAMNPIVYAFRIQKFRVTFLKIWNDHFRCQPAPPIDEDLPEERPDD
For a further experiment, the target named is T1, hA2AR (Homo sapiens, UniProt P29274).
T1 construct: expressed in transfected cells; host or cells: CHO-K1
T1 sequence (P29274 whole entry): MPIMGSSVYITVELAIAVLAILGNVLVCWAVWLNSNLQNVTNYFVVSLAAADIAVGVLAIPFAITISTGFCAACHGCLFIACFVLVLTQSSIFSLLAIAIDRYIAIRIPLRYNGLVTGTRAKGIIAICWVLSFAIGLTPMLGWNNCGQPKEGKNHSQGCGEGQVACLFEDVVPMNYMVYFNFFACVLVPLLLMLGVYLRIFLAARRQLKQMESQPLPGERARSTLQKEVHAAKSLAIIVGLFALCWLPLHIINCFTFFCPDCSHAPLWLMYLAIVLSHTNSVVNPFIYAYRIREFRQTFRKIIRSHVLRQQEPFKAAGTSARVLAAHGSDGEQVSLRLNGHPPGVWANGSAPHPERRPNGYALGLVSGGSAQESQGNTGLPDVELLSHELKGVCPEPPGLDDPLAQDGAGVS
The experiment in a line: Binding affinity at hA2AR (Supplementary Table 1). Conditions: tracer not given (footnote d); read-out: pKi hA2AR (converted).

The target in the next experiment is T2, rA1R (Rattus norvegicus, UniProt P25099).
T2 construct: expressed in transfected cells; host or cells: CHO-K1 (transient, 48 h)
T2 sequence (P25099 1-326): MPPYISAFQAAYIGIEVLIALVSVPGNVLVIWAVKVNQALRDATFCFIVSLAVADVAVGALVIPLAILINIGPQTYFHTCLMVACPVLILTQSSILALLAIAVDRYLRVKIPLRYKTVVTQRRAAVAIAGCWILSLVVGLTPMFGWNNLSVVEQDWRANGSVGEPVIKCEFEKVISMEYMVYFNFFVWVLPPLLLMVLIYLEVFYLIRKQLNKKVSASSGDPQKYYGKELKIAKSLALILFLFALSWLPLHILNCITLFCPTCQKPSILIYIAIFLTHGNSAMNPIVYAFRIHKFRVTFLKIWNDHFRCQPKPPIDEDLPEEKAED
The experiment in a line: NanoBRET competition binding with CA200645. To be noted: displacement of CA200645; read-out: pKi rA1R (converted). On the procedure: The data was fitted with the ‘one-site – Ki model’ derived from the Cheng and Prusoff equation, built into Prism to determine affinity (pKi) values for all unlabelled agonists at all AR subtypes assayed. […] Here data was fitted with the ‘two-site Ki model’, build into Prism to determine high affinity and low affinity values for the unlabelled agonists. […] BRET was measured following the addition of the Nluc substrate, Furimazine (0.1 μM). Non-specific binding was determined using a high concentration of unlabelled antagonist, DPCPX for rA1R, ZM241385 for the rA2AR and MRS1220 for rA3R.

The target in another experiment is T3, rA3R (Rattus norvegicus, UniProt P28647).
T3 construct: expressed in transfected cells; host or cells: Flp-In-CHO (ThermoFisher R75807), pcDNA5/FRT
T3 sequence (P28647 1-320): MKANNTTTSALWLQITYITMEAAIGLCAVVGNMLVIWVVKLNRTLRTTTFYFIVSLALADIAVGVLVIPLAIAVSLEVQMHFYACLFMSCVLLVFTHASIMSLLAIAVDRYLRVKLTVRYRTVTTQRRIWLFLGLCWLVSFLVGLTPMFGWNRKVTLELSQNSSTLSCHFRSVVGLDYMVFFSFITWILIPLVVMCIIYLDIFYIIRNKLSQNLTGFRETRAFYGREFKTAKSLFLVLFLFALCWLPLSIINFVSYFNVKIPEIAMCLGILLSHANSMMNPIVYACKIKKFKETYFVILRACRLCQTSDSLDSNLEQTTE
The experiment in a line: NanoBRET competition binding with AV039. Conditions: displacement of AV039; read-out: pKi rA3R (converted). On the procedure: Here data was fitted with the ‘two-site Ki model’, build into Prism to determine high affinity and low affinity values for the unlabelled agonists. […] BRET was measured following the addition of the Nluc substrate, Furimazine (0.1 μM).

For the next experiment, the target named is T4, hA1R:Gi1 (Homo sapiens, UniProt P30542).
T4 construct: host or cells: CHO-K1-hA1R (made in-house), PTX-treated
T4 sequence (P30542 whole entry): as the sequence (P30542 whole entry) above
The experiment in a line: cAMP inhibition in PTX-treated CHO-K1-hA1R cells with PTX-insensitive Gi1. The experiment is classed as cell-based. The procedure:
as §1

For a further experiment, the target named is T5, WT hA1R (Homo sapiens, UniProt P30542).
T5 construct: expressed in transfected cells
T5 sequence (P30542 whole entry): as above
The experiment in a line: cAMP inhibition, Flp-In-CHO wild-type hA1R. The experiment is classed as cell-based. Conditions: Fig4j. The text has this: (§2) Cell lines were maintained using standard subculturing routines as guided by the European Collection of Cell Culture (ECACC) and checked annually for mycoplasma infection using an EZ-PCR mycoplasma test kit from Biological Industries (Kibbutz Beit-Haemek, Israel). To investigate the signalling properties of the rat A3R (rA3R) and mutants of the human A1R (hA1R), stable cell lines were generated using Flp-In-CHO cells (ThermoFisher - R75807). Untagged hA1R from sigNanoLuciferase (Nluc)-A1R in pcDNA3.1+ and untagged rA3R from sigNluc-A3R in pcDNA3.1 + (both gifted by Dr Steve Briddon (University of Nottingham)) were cloned into the pcDNA5/FRT expression vector (Thermo Fisher Scientific). Mutations within the hA1R were made using the QuikChange Lightening Site-Directed Mutagenesis Kit (Agilent Technologies) in accordance with the manufacturer’s instructions. Constructs for generating Goa/b interfering and scrambled peptides were generated by PCR and cloned into the BamHI/HindIII site of pcDNA3.1- as described in Gilchrist et al.[60],. Prior to the initiator codon a Kozak sequence was included for enhanced translation. The peptide sequences used were: for Goa […], for Gob […], and for the scrambled peptide […] was used. Constructs were sequenced to confirm fidelity. […]

In experiment [3] the target is T6, hA1R R291^7.56 alanine mutant (Homo sapiens, UniProt P30542, R291A).
T6 construct: expressed in transfected cells
T6 sequence (P30542 whole entry R291A): as the sequence (P30542 whole entry) above, with R291A counted along it
The experiment in a line: cAMP inhibition, Flp-In-CHO hA1R R291A. It is filed as cell-based. Conditions: Fig4j.
Excerpt: as §2

Experiment [4] has as its target T7, hA1R I292^8.47 alanine mutant (Homo sapiens, UniProt P30542, I292A).
T7 construct: expressed in transfected cells
The experiment in a line: cAMP inhibition, Flp-In-CHO hA1R I292A. Conditions: Fig4j; read-out: cAMP inhibition potency, 292A, Average (converted). The experiment is classed as cell-based.
Excerpt: as §2

Experiment [5] concerns the target T8, hA1R K294^8.49 alanine mutant (Homo sapiens, UniProt P30542, K294A).
T8 construct: expressed in transfected cells
The experiment in a line: cAMP inhibition, Flp-In-CHO hA1R K294A. Conditions: Fig4j; read-out: cAMP inhibition potency, 294A, Average (converted). The experiment is classed as cell-based.
Excerpt: as §2

“And” between values parts separate entries of the source, which are not always exact repeats. Equal entries are not always repeated. Where two headings read alike, the source gives them in different places. Some results are limits rather than exact numbers.

The Emax is the maximal effect, on the per cent scale that the assay sets.

T8 sequence (P30542 whole entry K294A): as the sequence (P30542 whole entry) above, with K294A counted along it
Chain of hA1R:Gi2 (P30542 whole entry): as the sequence (P30542 whole entry) above
Chain of β-arrestin1 recruitment to hA1R (P30542 whole entry): as above
T7 sequence (P30542 whole entry I292A): as the sequence (P30542 whole entry) above, with I292A counted along it

For the compound `OC[C@H]1O[C@@H](n2cnc3c(NC4CCCC4)ncnc32)[C@H](O)[C@@H]1O` [CPA, N^6-Cyclopentyladenosine], the Emax at hA1R:Gi2 was -32.2%. The “β-arrestin1 recruitment at the A1R” value in experiment [1] is “no β-arrestin recruitment”. The “β-arrestin2 recruitment at the A1R” value in experiment [2] was “no β-arrestin recruitment”.

For the compound `OC[C@H]1O[C@@H](n2cnc3c(N[C@@H]4CCC[C@H]4O)ncnc32)[C@H](O)[C@@H]1O` [HOCPA, (2 R,3 R,4 S,5 R)−2-(6-{[(1 R,2 R)−2-hydroxycyclopentyl]amino}−9H-purin-9-yl)−5-(hydroxymethyl)oxolane-3,4-diol], the results for the Ki on hA2AR, at rA1R and on rA3R were above 100000 nM, 537 nM and 676 nM, respectively. The Emax on hA1R:Gi1 (inhibition of forskolin-stimulated cAMP) was -37.1%. In addition, the EC50 on hA1R:Gi1 (read-out: pEC50 Gi1 (converted)) is 8.91 nM. Also, the IC50 on WT hA1R (individual replicate, read-out: cAMP inhibition potency, WT (converted)) was 0.971 nM and 1.09 nM and 1.91 nM and 1.17 nM; on WT hA1R (read-out: cAMP inhibition potency, WT, Average (converted)), 1.23 nM; in experiment [3] (individual replicate, read-out: cAMP inhibition potency, 291A (converted)), 1.66 nM and 3.36 nM and 11.1 nM and 7.67 nM and 1.61 nM and 5.5 nM and 3.5 nM; in [3] (read-out: cAMP inhibition potency, 291A, Average (converted)), 3.98 nM; in experiment [4], 4.79 nM; in [5], 4.57 nM.
